ChEMBL document CHEMBL1201862, “PubChem BioAssay data set” (2004)
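Compound exposure: 48 hours, 5 concentrations, 96-well plates. The concentration for 50% growth inhibition is given as GI50.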 Activity calls are given as the source filed them. No stated cut-off is given here; in the data, active = GI50 up to about 1.1 µM and inactive = higher.

Columns and labels:
Assay in all cases: NCI anticancer screen, dose series, 48 h
ACHN = system: ACHN
CAKI-1 = system: CAKI-1
HOP-92 = system: HOP-92
HT-29 = system: HT-29
Malme-3M = system: Malme-3M
NCI-H226 = system: NCI-H226
NCI-H522 = system: NCI-H522
OVCAR-3 = system: OVCAR-3
OVCAR-4 = system: OVCAR-4
OVCAR-8 = system: OVCAR-8
SF-539 = system: SF-539
SK-MEL-28 = system: SK-MEL-28
SK-MEL-5 = system: SK-MEL-5
SK-OV-3 = system: SK-OV-3
SNB-75 = system: SNB-75
U-251 = system: U-251
A498 = system: A498

Measured: GI50

Nc1ncc(Cc2nc3ccccc3s2)s1
inactive: ACHN 54.5 µM | CAKI-1 53.3 µM | HOP-92 68.4 µM | HT-29 29.3 µM | Malme-3M 68.9 µM | NCI-H226 24.6 µM | NCI-H522 53.1 µM | OVCAR-3 47.3 µM | OVCAR-4 > 100 µM | OVCAR-8 57.3 µM | SF-539 > 100 µM | SK-MEL-28 > 100 µM | SK-MEL-5 28.6 µM | SK-OV-3 > 100 µM | SNB-75 > 100 µM | U-251 90.4 µM

C[N+](C)(C)CC(=O)N/N=C\c1c(O)ccc2ccccc12
inactive: A498 29.5 µM | ACHN 32.7 µM | CAKI-1 40.9 µM | HOP-92 13.2 µM | HT-29 > 100 µM | Malme-3M 11.9 µM | NCI-H226 21 µM | NCI-H522 16.2 µM | OVCAR-3 35.9 µM | OVCAR-4 32.2 µM | OVCAR-8 26.3 µM | SF-539 31.5 µM | SK-MEL-28 48.2 µM | SK-MEL-5 16.2 µM | SK-OV-3 34.8 µM | SNB-75 16.8 µM | U-251 21.4 µM

Cl.O=C(O)c1cccnc1
inactive: ACHN > 100 µM | CAKI-1 > 100 µM | HOP-92 > 100 µM | HT-29 > 100 µM | Malme-3M > 100 µM | NCI-H226 > 100 µM | NCI-H522 > 100 µM | OVCAR-3 > 100 µM | OVCAR-4 > 100 µM | OVCAR-8 > 100 µM | SF-539 34.8 µM | SK-MEL-28 > 100 µM | SK-MEL-5 > 100 µM | SNB-75 > 100 µM | U-251 > 100 µM

COc1ccc(OC)c2c1C=C[C@H](C1(C)SCCS1)C2C(C)=O (stereo not given in full)
inactive: A498 26 µM | ACHN 35.2 µM | CAKI-1 32.6 µM | HOP-92 32.8 µM | HT-29 18.7 µM | Malme-3M 20.7 µM | NCI-H226 24 µM | NCI-H522 13.9 µM | OVCAR-3 29.3 µM | OVCAR-4 42.5 µM | OVCAR-8 44.2 µM | SF-539 23.1 µM | SK-MEL-28 24.8 µM | SK-MEL-5 17.2 µM | SK-OV-3 20.4 µM | U-251 26.1 µM

CC1(O)Oc2ccc3ccccc3c2C=C1C(N)=O (stereo not given)
inactive: A498 28.1 µM | ACHN > 100 µM | CAKI-1 80.5 µM | HOP-92 77.1 µM | OVCAR-4 72.9 µM | SF-539 42.1 µM | SK-MEL-28 > 100 µM | SK-MEL-5 58.6 µM | SK-OV-3 > 100 µM | SNB-75 52 µM | U-251 > 100 µM

Cc1ccc(Nc2nc(C)c(C(=O)CC(=O)C(=O)Nc3ccc(Cl)cc3)s2)cc1
inactive: A498 > 100 µM | ACHN > 100 µM | CAKI-1 > 100 µM | HOP-92 > 100 µM | Malme-3M 76.6 µM | NCI-H522 > 100 µM | OVCAR-3 > 100 µM | SF-539 > 100 µM | SK-MEL-28 > 100 µM | SK-MEL-5 > 100 µM | SK-OV-3 > 100 µM | SNB-75 30.9 µM | U-251 > 100 µM

CSc1nc(-c2ccccc2)nc(C(C#N)C#N)n1
inactive: A498 > 100 µM | ACHN > 100 µM | CAKI-1 > 100 µM | HOP-92 > 100 µM | HT-29 > 100 µM | Malme-3M > 100 µM | NCI-H226 > 100 µM | NCI-H522 > 100 µM | OVCAR-3 > 100 µM | OVCAR-4 > 100 µM | OVCAR-8 > 100 µM | SF-539 > 100 µM | SK-MEL-28 > 100 µM | SK-MEL-5 > 100 µM | SK-OV-3 > 100 µM | SNB-75 > 100 µM | U-251 > 100 µM
